# Source: ChEMBL document CHEMBL3797140, “Acridin-3,6-dialkyldithiourea hydrochlorides as new photosensitizers for photodynamic therapy of mouse leukemia cells” (Bioorg Med Chem, 2016)
# Key:
# L1210 = assay: Phototoxicity against mouse L1210 cells assessed as cell viability preincubated for 1 hr followed by 1.05 J/cm2 UV-A irradiation measured after 48 hrs by MTT assay; assay type: functional, cell-based; settings: L1210, light or radiation study
# [1] = Dark toxicity against mouse NIH/3T3 cells assessed as cell viability after 48 hrs by MTT assay; assay type: cell-based, NIH3T3
# [2] = Dark toxicity against mouse L1210 cells assessed as cell viability after 48 hrs by MTT assay; assay type: cell-based
# [3] = Phototoxicity against mouse NIH/3T3 cells assessed as cell viability preincubated for 1 hr followed by 1.05 J/cm2 UV-A irradiation measured after 48 hrs by MTT assay; assay type: cell-based; settings: NIH3T3, light or radiation study
smiles,measurement,setting,value
CCCCNC(=S)Nc1ccc2cc3ccc(NC(=S)NCCCC)cc3nc2c1,IC50,L1210,0.52 µM
same,IC50 at 48 h,[1],32.7 µM
same,IC50 at 48 h,[2],6.6 µM
same,IC50,[3],2.6 µM
